Results from patent US20210260064A1, “POZIOTINIB COMBINATIONS WITH AN ANTI-HER1, HER2 OR HER4 ANTIBODY AND METHODS OF USE THEREOF” (Spectrum Pharmaceuticals, Inc., priority 2018, published 2021).
Like-named read-outs stand apart in the source and are kept apart here.

Assays:
MBA-MB-453 cells = experiment: Combination of poziotinib with other anticancer drugs, synergy on proliferation; type: cell-based; conditions: HER2 overexpressed trastuzumab resistant breast cancer cells; concentrations equal to or lower than the GI50 of poziotinib alone
BT-474 cells = experiment: as above; type: cell-based; conditions: HER2-overexpressed, ER-negative breast cancer cells
HER2-positive GC [1] = conditions: monotherapy; cited from earlier work
[2] = tested on: NSCLC patients having EGFR activating mutations; conditions: in vivo; cited from earlier work
HER2-amplified GC cells = conditions: in vitro; cited from earlier work
[3] = cited from earlier work; for ORR / median PFS: monotherapy
[4] = tested on: patients with HER2-positive GC; experiment: Phase I/II study of poziotinib combined with paclitaxel and trastuzumab: safety (TEAEs, DLT, MTD, dose adjustments); type: in vivo; conditions: for MTD of poziotinib: combined with paclitaxel and trastuzumab
Procedure: (§1) A prospective phase I/II study was conducted at 11 treatment centers in Korea. Patients with HER2-positive GC who previously had received one or more lines of chemotherapy were enrolled. Enrolled patients received oral poziotinib (8 mg or 12 mg) once daily for 14 days, followed by 7 days off.
(§2) Patients. […] Key exclusion criteria included: a history of hypersensitivity to drugs containing Cremophor® EL and trastuzumab; previous exposure to taxanes, and symptomatic central nervous system metastasis.
(§3) Treatment Procedures. […] DLTs were evaluated in 6 patients at each poziotinib dose level.
(§4) Safety Analyses and Efficacy. Adverse events (AEs) and TEAEs were evaluated using National Cancer Institute-Common Terminology Criteria for Adverse Events (version 4.03). DLTs were defined as grade […] non-hematologic toxicities (except for alopecia); grade ≥3 diarrhea, nausea and vomiting, despite maximal dosage of anti-diarrhea and/or anti-emetic medication (as applicable); and grade 4 neutropenia sustained for ≥7 days, grade 3-4 neutropenia with fever or infection, grade 4 thrombocytopenia and grade 3 thrombocytopenia sustained for 7 days, or with accompanying bleeding, or requiring transfusion. Left ventricular ejection fraction (LVEF) assessment was performed at baseline, on day 1 of the first 3 cycles and every 3 cycles thereafter. All patients who received at least one dose of poziotinib were included in the safety analysis. Tumor response was evaluated by CT or MRI of the thorax, abdomen and pelvis every 6 weeks using RECIST version 1.1, according to investigator assessment.
(§5) Statistical Analysis. The primary objective of phase I was to assess the safety and tolerability of poziotinib and to determine the MTD of poziotinib when combined with paclitaxel and trastuzumab. The primary objective of the phase II part was to assess the objective response rate (ORR) of poziotinib combined with paclitaxel and trastuzumab. The secondary objectives were to evaluate the safety and tolerability, progression-free survival (PFS), time to tumor progression (TTP) and duration of overall response (DOR).

[5] = tested on: patients with HER2-positive GC; experiment: Phase I/II study of poziotinib combined with paclitaxel and trastuzumab: efficacy (tumor response RECIST 1.1, survival); type: in vivo, human
Procedure: as §1, §2, §3, §4, §5
For phase II, it was hypothesized that an ORR <5% would be ineffective and an ORR >20% would be considered to be clinically significant. Sample size was calculated using Simon's 2-stage minimax design, with 80% power and a significance level of 5%. Of the total 27 target subjects, 13 were required in the 1st stage. If the tumor response was 0 out of 13 patients, the study was planned to be terminated early. However, if at least 1 response was observed, an additional 14 patients would be enrolled in the study.

SK-BR-3 cells = experiment: Combination of poziotinib with other anticancer drugs, synergy on proliferation; type: cell-based; conditions: HER2-overexpressed and ER-negative
MDA-MB-468 cells = experiment: as above; type: cell-based; conditions: HER2 negative, ER-negative, HER1-overexpressed triple negative breast cancer cells
MDA-MB-361 cells = experiment: as above; type: cell-based; conditions: HER2-overexpressed, ER-positive, trastuzumab resistant
MCF-7 cells = experiment: as above; type: cell-based; conditions: not HER1 and HER2-overexpressed and ER-positive
[6] = tested on: HER2-positive breast cancer; conditions: in combination with docetaxel plus trastuzumab; cited from earlier work
HER2-positive GC [7] = conditions: in combination with chemotherapy; cited from earlier work
[8] = tested on: patients with HER2-positive GC; conditions: patients who failed prior fluoropyrimidine and platinum, cited from earlier work
[9] = All patients, Phase I 12 mg (5)
[10] = All patients, Phase I Total (12)
[11] = All patients, Phase II RD: 8 mg (32)
[12] = All patients, Total population Total (44)
[13] = Trastuzumab-naïve patients, Phase I 8 mg (n 3)
[14] = Trastuzumab-naïve patients, Phase I Total (n 3)
[15] = Trastuzumab-naïve patients, Phase II RD: 8 mg (n 8)
[16] = Trastuzumab-naïve patients, Total population (n 11)
[17] = Trastuzumab-pretreated Patients, Phase I 8 mg (n 4)
[18] = Trastuzumab-pretreated Patients, Phase I 12 mg (n 5)
[19] = Trastuzumab-pretreated Patients, Phase I Total (n 9)
[20] = Trastuzumab-pretreated Patients, Phase II RD: 8 mg (n 24)
[21] = Trastuzumab-pretreated Patients, Total population (n 33)

Molecule: O=c1[nH]cc(F)c(=O)[nH]1 [5-FU, 5-fluorouracil]
- synergistic effect when combined with poziotinib (MBA-MB-453 cells): excellent synergistic effect
- synergistic effect when combined with poziotinib (BT-474 cells): high synergistic effect

Molecule: N.N.[Cl][Pt][Cl] [cisplatin]
- synergistic effect when combined with poziotinib (MBA-MB-453 cells): excellent synergistic effect
- synergistic effect when combined with poziotinib (BT-474 cells): high synergistic effect

Molecule: COc1cc2ncnc(Nc3ccc(F)c(Cl)c3)c2cc1NC(=O)/C=C/CN1CCCCC1 [dacomitinib]
- ORR (HER2-positive GC [1]): 7.4%
- median PFS (HER2-positive GC [1]): 2.1 months

Molecule: C#Cc1cccc(Nc2ncnc3cc(OCCOC)c(OCCOC)cc23)c1 [erlotinib]
- Patients observed to be resistant due to the EGFR T790M mutation [2]: about 60%

Molecule: CS(=O)(=O)CCNCc1ccc(-c2ccc3ncnc(Nc4ccc(OCc5cccc(F)c5)c(Cl)c4)c3c2)o1 [lapatinib]
- anti-tumor activity of dual blockade with trastuzumab (HER2-amplified GC cells): highly synergistic anti-tumor activity

Molecule: CC(=O)O[C@H]1C(=O)[C@@]2(C)[C@H]([C@H](OC(=O)c3ccccc3)[C@]3(O)C[C@H](OC(=O)[C@H](O)[C@@H](NC(=O)c4ccccc4)c4ccccc4)C(C)=C1C3(C)C)[C@]1(OC(C)=O)CO[C@@H]1C[C@@H]2O [paclitaxel]
- synergistic effect when combined with poziotinib (MBA-MB-453 cells): excellent synergistic effect
- synergistic effect when combined with poziotinib (BT-474 cells): high synergistic effect

Molecule: C=CC(=O)N1CCC(Oc2cc3c(Nc4ccc(Cl)c(Cl)c4F)ncnc3cc2OC)CC1 [poziotinib, 1-[4-[4-(3,4-dichloro-2-fluorophenylaminino)-7-methoxyquinazolin-6-yloxy]-piperidin-1-yl]prop-2-en-1-one]
- MTD of poziotinib as monotherapy ([3]; continuous dosing): 18 mg/day
- MTD of poziotinib as monotherapy ([3]; intermittent dosing (14 days on and 7 days off)): 24 mg/day
- ORR ([3]; continuous dosing schedule): 21%
- median PFS ([3]; continuous dosing schedule): 9.0 weeks
- ORR ([3]; intermittent dosing schedule): 16%
- median PFS ([3]; intermittent dosing schedule): 12.0 weeks
- TEAEs by Maximum Severity: Grade 5 (death) ([4]; Phase I 12 mg (n = 5)): 0 n
- TEAEs leading to death ([4]; Phase I 12 mg (n = 5)): 0 n
- MTD of poziotinib ([4]; Phase I part of the current study): 8 mg/day
- MTD of poziotinib ([4]; Phase I, once daily 14 days, 7 days off): 8 mg
- AE related to poziotinib: Fatigue ([4]; human, in vivo): 0 n
- AE related to poziotinib: Myalgia ([4]; human, in vivo): 0 n
- AE related to poziotinib: Vomiting ([4]; human, in vivo): 0 n
- Left ventricular systolic dysfunction (LVSD) ([4]; human, in vivo): no grade 3 or 4 left ventricular systolic dysfunction
- TEAE ≥Grade 3: Abdominal pain ([4]; human, in vivo): 0 n
- TEAE ≥Grade 3: Mucosal inflammation ([4]; human, in vivo): 0 n
- TEAE ≥Grade 3: Pruritus ([4]; human, in vivo): 0 n
- TEAE ≥Grade 3: Rash ([4]; human, in vivo): 0 n
- TEAE ≥Grade 3: Stomatitis ([4]; human, in vivo): 0 n
- TEAEs by Maximum Severity: Grade 1 (mild) ([4]; human, in vivo): 0 n
- Overall survival, Median ([5]; All patients, Phase I 8 mg (7)): 30.6 weeks
- Progression free survival, Median ([5]; All patients, Phase I 8 mg (7)): 17.1 weeks
- Time to tumor progression, Median ([5]; All patients, Phase I 8 mg (7)): 18.2 weeks
- Overall survival, Median [5, 9]: 19.9 weeks
- Progression free survival, Median [5, 9]: 17.7 weeks
- Time to tumor progression, Median [5, 9]: 17.7 weeks
- Overall survival, Median [5, 10]: 30.6 weeks
- Progression free survival, Median [5, 10]: 17,7 weeks
- Time to tumor progression, Median [5, 10]: 17.9 weeks
- Overall survival, Median [5, 11]: 29.5 weeks
- Progression free survival, Median [5, 11]: 13.0 weeks
- Time to tumor progression, Median [5, 11]: 15.0 weeks
- Overall survival, Median [5, 12]: 29.5 weeks
- Progression free survival, Median [5, 12]: 16.0 weeks
- Time to tumor progression, Median [5, 12]: 17.1 weeks
- Best overall response: CR ([5]; Phase I 8 mg (n = 7)): 0 n
- Duration of overall response, Median ([5]; Phase I 8 mg, 2 patients): 14.5 weeks
- Best overall response: CR ([5]; Phase I 12 mg (n = 5)): 0 n
- Best overall response: unknown ([5]; Phase I 12 mg (n = 5)): 0 n
- Duration of overall response, Median ([5]; Phase I 12 mg, 2 patients): 20.4 weeks
- Duration of overall response, Median ([5]; Phase I Total): 15.0 weeks
- Best overall response: CR ([5]; Phase I Total (n = 12)): 0 n
- Patients with tumor shrinkage ([5]; Phase II): Twenty
- Duration of overall response, Median ([5]; Phase II RD: 8 mg, 7 patients): 26.8 weeks
- Overall survival, Median [5, 13]: 194.9 weeks
- Progression free survival, Median [5, 13]: 30.6 weeks
- Overall survival, Median [5, 14]: 194.9 weeks
- Progression free survival, Median [5, 14]: 30.6 weeks
- Disease control rate [5, 15]: 5 n
- Overall survival, Median [5, 15]: 42.6 weeks
- Progression free survival, Median [5, 15]: 18.7 weeks
- Overall survival, Median [5, 16]: 59.2 weeks
- Progression free survival, Median [5, 16]: 20.7 weeks
- Overall survival, Median [5, 17]: 30.6 weeks
- Progression free survival, Median [5, 17]: 15.5 weeks
- Overall survival, Median [5, 18]: 19.9 weeks
- Progression free survival, Median [5, 18]: 17.7 weeks
- Overall survival, Median [5, 19]: 21.1 weeks
- Progression free survival, Median [5, 19]: 17.7 weeks
- Overall survival, Median [5, 20]: 29.5 weeks
- Progression free survival, Median [5, 20]: 13.0 weeks
- Overall survival, Median [5, 21]: 29.5 weeks
- Progression free survival, Median [5, 21]: 15.0 weeks

Molecule: CCC1=C[C@@H]2CN(C1)Cc1c([nH]c3ccccc13)[C@@](C(=O)OC)(c1cc3c(cc1OC)N(C)[C@H]1[C@@](O)(C(=O)OC)[C@H](OC(C)=O)[C@]4(CC)C=CCN5CC[C@]31[C@@H]54)C2 [vinorelbine]
- synergistic effect when combined with poziotinib (SK-BR-3 cells): sufficient effect was observed to indicate synergy
- synergistic effect when combined with poziotinib (MDA-MB-468 cells): synergistic effect was observed
- synergistic effect when combined with poziotinib (MDA-MB-361 cells): synergistic effect at some concentrations
- synergistic effect when combined with poziotinib (MCF-7 cells): synergy at every concentration
- synergistic effect when combined with poziotinib (BT-474 cells): synergistic effect was not observed

Molecule: pertuzumab: anti-HER2 antibody used for dual blockade with trastuzumab
- Effect on OS [6]: significantly increased OS
- Effect on OS (HER2-positive GC [7]): did not extend OS

Molecule: trastuzumab emtansine
- ORR [8]: 20.6%
- Efficacy compared with paclitaxel ([8]; phase III): not superior to paclitaxel
